Test results from ChEMBL document CHEMBL4266057, “Optimization of Preclinical Metabolism for Somatostatin Receptor Subtype 5-Selective Antagonists” (ACS Med Chem Lett, 2018).

Assays:
in vitro [1] = details: human, liver microsomes
in vitro [2] = details: rhesus monkey, liver microsomes
[3] = Drug level in rhesus monkey plasma treated with 4-(8-((2,6-diethoxy-4'-fluorobiphenyl-4-yl)methyl)-3-oxo-2,8-diazaspiro[4.5]decan-2-yl)benzoic acid at 50 mg/kg, po qd for 5 days by HPLC analysis; format: ADME, organism-based, Macaca mulatta; details: in vivo, 120 h
[4] = Metabolic stability in rat liver microsomes at 1 uM after 30 mins; format: ADME, microsome; details: read-out: Stability
[5] = Metabolic stability in Beagle dog liver microsomes at 1 uM after 30 mins; format: ADME, Canis lupus familiaris, microsome; details: read-out: Stability
[6] = Drug metabolism in rhesus monkey plasma assessed as glucuronidation of carboxylic acid at 50 mg/kg, po qd for 5 days by HPLC analysis; format: ADME, organism-based, Macaca mulatta; details: in vivo, 120 h
[7] = Drug metabolism in rhesus monkey plasma assessed as hydroxylation of benzoic acid at 50 mg/kg, po qd for 5 days by HPLC analysis; format: ADME, organism-based, Macaca mulatta; details: in vivo, 120 h
[8] = Drug metabolism in rhesus monkey plasma assessed as oxidation of biphenyl ring at 50 mg/kg, po qd for 5 days by HPLC analysis; format: ADME, organism-based, Macaca mulatta; details: in vivo, 120 h
[9] = Drug metabolism in rhesus monkey plasma assessed as de-ethylation of ethoxyl group at 50 mg/kg, po qd for 5 days by HPLC analysis; format: ADME, organism-based, Macaca mulatta; details: in vivo, 120 h
[10] = Fraction unbound in high fat diet fed C57BL/6N mouse plasma at 3 mg/kg, po after 3 hrs; format: ADME, organism-based; details: in vivo
in vivo [11] = details: Sprague-Dawley, rat
in vivo [12] = details: Sprague-Dawley, rat, iv, 1 mg/kg
in vivo [13] = details: Sprague-Dawley, rat, po, 2 mg/kg
in vivo [14] = details: Sprague-Dawley, rat; remark: listed apart in the source
in vivo [15] = details: rhesus monkey, po, 5 mg/kg
in vivo [16] = details: rhesus monkey, po, 5 mg/kg; remark: listed apart in the source
in vivo [17] = details: rhesus monkey, plasma, po, 5 mg/kg

With `Cc1cc(-c2ccc(F)c(F)c2F)c(CN2CCC3(CC2)CC(=O)N(c2ccc(C(=O)O)cc2)C3)cc1C(F)(F)F` the remaining at 0.5 h, 1 µM (in vitro [1]) was 100% and the remaining at 0.5 h, 1 µM (in vitro [2]) was 94%.

For `CCOc1cc(CN2CCC3(CC2)CC(=O)N(c2ccc(C(=O)O[C@@H]4O[C@H](C(=O)O)[C@@H](O)[C@H](O)[C@H]4O)cc2)C3)cc(OCC)c1-c1ccc(F)cc1`, the Drug metabolism [3] was “Metabolite_Detected”.

In the case of `Cc1cccc2c(CN3CCC4(CC3)CC(=O)N(c3ccc(C(=O)O)cc3)C4)cn(C(C)C)c12`, the remaining at 0.5 h, 1 µM (in vitro [1]) is reported as 100% and the remaining at 0.5 h, 1 µM (in vitro [2]) is reported as 95%.

With `CCOc1cc(CN2CCC3(CC2)CC(=O)N(c2ccc(C(=O)O)cc2)C3)cc(OCC)c1-c1ccc(F)cc1` the remaining at 0.5 h, 1 µM [4] was > 80%, the remaining at 0.5 h, 1 µM [5] was > 80% and the Drug metabolism [6] was “Metabolite_Detected”. The Drug metabolism [7] was “Metabolite_Detected”, the Drug metabolism [8] was “Metabolite_Detected” and the Drug metabolism [9] was “Metabolite_Detected”. The “Cp(f)” value [10] was 16 nM, the AUC (in vivo [11]) was 1.67 µM·h and the remaining at 0.5 h, 1 µM (in vitro [1]) was 92%. It also gave a remaining at 0.5 h, 1 µM (in vitro [2]) of 28%.

In the case of `O=C(O)c1ccc(N2CC3(CCN(Cc4cc(C(F)(F)F)ccc4C4CC4)CC3)OC2=O)cc1`, the clearance (in vivo [12]) is reported as 3.4 mL/min/kg, the AUC (in vivo [11]) is reported as 8.5 µM·h and the bioavailability (in vivo [13]) is reported as 85%. The half-life (in vivo [14]) was 1.6 h, the Cmax (in vivo [15]) was 2990 nM and the AUC (in vivo [16]) was 31.2 µM·h. The concentration at 24 h (in vivo [17]) was 470 nM, the remaining at 0.5 h, 1 µM (in vitro [1]) was 99% and the remaining at 0.5 h, 1 µM (in vitro [2]) was 94%.
